Laboratory results: publication PMC6731241, “L-Type Amino Acid Transporter 1 (LAT1/Lat1)-Utilizing Prodrugs Can Improve the Delivery of Drugs into Neurons, Astrocytes and Microglia” (Scientific Reports, 2019)
Read-outs that look alike come from different tables or passages of the source.

Tests used:
[1] = Bioconversion in primary astrocytes homogenate; assay type: in vitro ADME, mouse; conditions: for half-life at 400 µM: mouse, pH 7.4, primary astrocytes homogenate, 37 °C
Protocol: (§1) The rates of bioconversion of all studied prodrugs in immortalized BV2 microglia and primary astrocytes homogenates were determined at 37 °C. The cell homogenates were prepared by homogenizing 10 × 10^6 cells/ml in HBSS (pH 7.4) with SoniPerp 150 Plus disintegrator (MSE Ltd., London, UK) for 2 s × 3. The incubation mixtures were prepared by mixing cell homogenate (final protein concentration 1.0 mg/mL) with HBSS buffer and 10 mM prodrug stock solution in DMSO (the final concentration of prodrugs was 400 µM and the DMSO concentration […]). The mixture was then incubated for 5 h and the samples (50 µL) were withdrawn at appropriate intervals. The proteins in the samples were precipitated with ice-cold acetonitrile (150 µL) and the samples were centrifuged for 5 min at 12 000 × g at room temperature. The supernatants were collected and analyzed by the LC-MS methods as reported earlier[19],[24],[26]. In blank reactions (chemical stability), the cell homogenate was replaced with same volume of buffer. The pseudo-first-order half-lives (t½) for the rates of bioconversion of the prodrugs were calculated from the slope of the linear portion of the plotted logarithm of remaining prodrug concentration versus time.

[2] = Bioconversion in immortalized BV2 microglia homogenate; assay type: in vitro ADME, mouse; conditions: for half-life at 400 µM: mouse, pH 7.4, 37 °C
Protocol: as §1

mouse primary astrocytes = assay: Cellular uptake of compounds into primary astrocytes; assay type: cell-based
Protocol: (§2) Pre-incubation was done with 500 μL of pre-warmed HBSS at 37 °C for 10 min before adding substrates (250 μL in HBSS) for the uptake experiments. The ability of brain cell to carry a known LAT1/Lat1 substrate, the cells were incubated with [^14C]-L-leucine at 37 °C for 2.5 min in uptake buffer (HBSS, 250 μL) containing 0.76–75 μM (0.25 mCi/ml) of [^14C]-L-leucine (PerkinElmer, Waltham, MA, USA).
(§3) The protein concentrations on each plate were determined as a mean of three samples by Bio-Rad Protein Assay, based on the Bradford dye-binding method, using bovine serum albumin (BSA) as a standard protein and measuring the absorbance (595 nm) by multiplate reader (EnVision, Perkin Elmer, Inc., Waltham, MA, USA).

[3] = parameters: method as in PMID 28662899, PMID 27266990; conditions: unspecific brain tissue binding, fraction unbound (fu,brain), equilibrium dialysis; cited from earlier work
[4] = test system: primary cortical neurons and immortalized microglia; assay: Cellular uptake of compounds, neurons and microglia (joint range); assay type: cell-based, mouse; conditions: for Uptake of prodrug relative to parent drug 2: primary cortical neurons and immortalized microglia
Protocol: as §2, §3

[5] = cited from earlier work
[6] = cited from earlier work; remark: listed apart in the source
LAT1/Lat1 = test system: LAT1/Lat1; parameters: method as in PMID 11557028, PMID 15567481, PMID 19890975; conditions: human LAT1 transfected cells or cancer cells expressing hLAT1 or rodent Lat1; read-out: Affinity (Km), previously reported values; cited from earlier work
Lat1 [7] = biological target: T1, Lat1 (Mus musculus, UniProt Q9Z127); assay: [14C]-L-Leu uptake kinetics in primary astrocytes; conditions: 0.76–75 µM, 2.5 min
Lat1 [8] = biological target: T1, Lat1; assay: [14C]-L-Leu uptake kinetics, primary cortical neurons and immortalized microglia (joint range); conditions: range over primary cortical neurons and immortalized microglia
Lat1 [9] = biological target: T1, Lat1; assay: [14C]-L-Leu uptake kinetics in primary cortical neurons; conditions: 0.76–75 µM, 2.5 min
Lat1 [10] = biological target: T1, Lat1; assay: [14C]-L-Leu uptake kinetics in immortalized microglia (BV2); conditions: 0.76–75 µM, 2.5 min
Lat1 [11] = biological target: T1, Lat1; assay: Competitive prodrug uptake with LAT1/Lat1-inhibitor (KMH-233), all cell types; assay type: cell-based; parameters: neurons and microglia also express functional Lat1 on their cell surface; endogenous in cells; host or cells: mouse primary cortical neurons, mouse primary astrocytes, immortalized mouse microglia (BV2); conditions: 100 µM KMH-233, range over all cell types
Protocol: The competitive uptake in the presence of LAT1/Lat1-inhibitor (KMH-233) was carried out as described above with HBSS buffer solution containing 1–10 µM of the studied compounds. The cells were pre-incubated with 100 µM LAT1/Lat1-inhibitor for 10 min and the incubation mixture was removed before adding the studied prodrug and LAT1/Lat1-inhibitor on the cells. The competitive uptake (30 min) with the inhibitor was then carried out as the normal uptake described above. The amounts of studied compounds were analyzed by the LC-MS method and calculated from the spiked standard curve and normalized with the protein concentrations.

[12] = test system: immortalized microglia (BV2); assay: Cell viability of immortalized microglia (resazurin); assay type: cell-based; conditions: 100 µM, 24 h
Protocol: 2. Effects of LAT1-Utilizing Prodrugs and Their Parent Drugs on the Cell Viability of Immortalized
Immortalized microglia (BV2) were seeded at the density of 2 × 10^4 cells/well onto collagen-coated 96-well plates. The cells were used for the proliferation experiments one day after seeding. A concentration of 100 µM of studied compounds were added into the growth medium and incubated for 24 h, after which the cell viability was determined by resazurin cell proliferation kit (Sigma, St.
Louis, MO, USA). The samples were measured fluorometrically by monitoring the increase in fluorescence at a wavelength of 590 nm using an excitation wavelength of 560 nm (EnVision, Perkin Elmer, Inc., Waltham, MA, USA), which is directly proportional to aerobic respiration and cellular metabolism of cells. The cell death was confirmed in the decrease of cell amount by visualizing the […]
Figure S2. The cell viability of immortalized microglia (BV2) after 24 h incubation of 100 µM LAT1-utilizing prodrugs (PD1-PD6) and their parent drugs (D1-D3) presented as percentages (%) compared to the untreated cells (ctrl) (mean ± SD, n=3-6). An asterisk denotes a statistically significant difference from the respective control (** P < 0.01, * P < 0.05 one-way ANOVA, followed by […]

[13] = test system: immortalized microglia (BV2); assay: Cellular uptake of compounds into immortalized microglia (BV2); assay type: cell-based, mouse; conditions: 25, 50 and 100 µM (Fig. 4c)
Protocol: as §2

mouse primary neurons = assay: Cellular uptake of compounds into primary neurons; assay type: cell-based; conditions: 25, 50 and 100 µM (Fig. 4c)
Protocol: as §2

[14] = 400 µM, read-out: Half-life of bioconversion

T1 sequence (Q9Z127 whole entry): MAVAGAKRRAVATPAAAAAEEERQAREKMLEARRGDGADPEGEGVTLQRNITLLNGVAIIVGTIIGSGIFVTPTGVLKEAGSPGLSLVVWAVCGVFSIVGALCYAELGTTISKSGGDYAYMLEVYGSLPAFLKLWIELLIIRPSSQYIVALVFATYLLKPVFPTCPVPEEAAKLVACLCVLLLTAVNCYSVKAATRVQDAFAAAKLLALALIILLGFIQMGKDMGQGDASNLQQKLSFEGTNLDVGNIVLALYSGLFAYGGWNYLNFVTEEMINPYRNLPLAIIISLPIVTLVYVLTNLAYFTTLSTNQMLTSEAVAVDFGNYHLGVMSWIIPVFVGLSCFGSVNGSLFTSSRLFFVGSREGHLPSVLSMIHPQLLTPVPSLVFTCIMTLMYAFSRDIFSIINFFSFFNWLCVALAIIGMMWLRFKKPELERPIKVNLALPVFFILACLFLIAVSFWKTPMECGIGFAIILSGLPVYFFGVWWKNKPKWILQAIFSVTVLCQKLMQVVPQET
T1 sequence (P10852 whole entry partner): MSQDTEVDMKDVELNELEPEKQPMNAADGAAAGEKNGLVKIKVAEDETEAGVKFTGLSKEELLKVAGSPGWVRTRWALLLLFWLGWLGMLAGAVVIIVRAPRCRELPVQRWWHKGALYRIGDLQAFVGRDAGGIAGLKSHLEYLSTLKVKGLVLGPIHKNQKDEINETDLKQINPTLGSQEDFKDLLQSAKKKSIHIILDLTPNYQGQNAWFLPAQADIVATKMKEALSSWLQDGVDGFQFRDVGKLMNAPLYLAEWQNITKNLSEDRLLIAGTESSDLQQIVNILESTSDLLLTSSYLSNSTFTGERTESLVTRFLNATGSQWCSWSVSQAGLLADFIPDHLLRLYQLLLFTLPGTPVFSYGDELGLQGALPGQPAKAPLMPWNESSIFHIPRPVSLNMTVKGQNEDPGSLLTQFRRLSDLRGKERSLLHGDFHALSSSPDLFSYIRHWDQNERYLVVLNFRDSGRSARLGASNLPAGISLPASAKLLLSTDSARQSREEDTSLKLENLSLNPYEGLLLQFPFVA

CC(C(=O)Nc1cccc(C[C@H](N)C(=O)O)c1)c1cccc(C(=O)c2ccccc2)c1 (some centres unmarked) [PD2]
Stability in cell homogenate ([1]; astrocytes homogenate): completely stable | Stability in cell homogenate ([2]; microglia homogenate): completely stable | Uptake of prodrug relative to ketoprofen (mouse primary astrocytes): 10–80 times | Brain Protein Binding fu (%) [3]: 6.2% | Uptake of prodrug relative to parent drug 2 [4]: 1–7 times | Stability in brain S9 subcellular fraction ([5]; in vitro media lack co-factors): stable and do not release ketoprofen at all | Half-life in vivo (release of ketoprofen) ([6]; brain): 0.45 h | Half-life in vivo (release of ketoprofen) ([6]; liver): 0.383 h | Half-life in vivo (release of ketoprofen) ([6]; plasma): 0.267 h

O=C1OCc2cc(-c3ccc(-c4ccc(CO)cc4)s3)ccc21 [D1, reference compound]
Brain Protein Binding fu (%) [3]: 0.03%

CC(C)C[C@H](N)C(=O)O [[^14C]-L-Leu, L-leucine]
Km (LAT1/Lat1): 9 to 52 µM | Km (Lat1 [7]): 65.9 ± 14.3 µM | Vmax (Lat1 [7]): 2.92 ± 0.36 nmol/min/mg protein | Km (Lat1 [8]): 85.8 to 146 µM | Vmax (Lat1 [8]): 0.84–1.90 nmol/min/mg of protein | Km (Lat1 [9]): 146 ± 47.3 µM | Vmax (Lat1 [9]): 1.90 ± 0.44 nmol/min/mg protein | Vmax (Lat1 [10]): 0.84 ± 0.12 nmol/min/mg protein

COc1cc(/C=C/C(=O)NCc2cccc(C[C@@H](N)C(=O)O)c2)ccc1O [PD4]
Inhibition of prodrug uptake by LAT1/Lat1-inhibitor (Lat1 [11]; 10 µM prodrug): 83.24–85.23% | Stability in cell homogenate ([1]; astrocytes homogenate): stable | Stability in cell homogenate ([2]; microglia homogenate): stable | Brain Protein Binding fu (%) [3]: 13.0% | Effect on cell viability [12]: slightly increased the cell proliferation

COc1cc(/C=C/C(=O)O)ccc1O [D3, ferulic acid, reference compound]
Brain Protein Binding fu (%) [3]: 26.0% | Amount in cells (under the detection limit) ([4]; neurons and microglia): < 1.0 nM | Cell uptake [13]: below LLOQ | Cell uptake (mouse primary neurons): below LLOQ

N[C@H](Cc1cccc(C(=O)OCc2ccc(-c3ccc(-c4ccc5c(c4)COC5=O)s3)cc2)c1)C(=O)O [PD1]
half-life at 400 µM [1, 14]: 5.81 ± 0.402 h | half-life at 400 µM ([2]; tissue homogenate, immortalized microglia homogenate, 400 µM, read-out: Half-life of bioconversion): 3.96 ± 0.738 h | Brain Protein Binding fu (%) [3]: 1.4% | Uptake of prodrug relative to its parent drug ([4]; neurons and microglia): 10–17 | Half-life in brain S9 subcellular fraction ([5]; in vitro, listed as Prodrug 1): approximately 4.7 h | Half-life in brain S9 subcellular fraction ([5]; in vitro, listed as prodrug 1): approximately 5 h | Half-life in vivo ([6]; brain): 1.4 h | Half-life in vivo ([6]; liver): 1.25 h | Half-life in vivo ([6]; plasma): 1.57 h

COc1cc(/C=C/C(=O)Oc2cccc(C[C@H](N)C(=O)O)c2)ccc1O [PD6]
half-life at 400 µM ([1]; astrocytes homogenate, read-out: Estimated half-life of bioconversion): > 9 h | half-life at 400 µM ([2]; tissue homogenate, microglia homogenate, read-out: Estimated half-life of bioconversion): > 9 h | Intact prodrug detected after 5 h ([5]; brain S9 subcellular fraction): 70%

COc1cc(/C=C/C(=O)Nc2cccc(C[C@H](N)C(=O)O)c2)ccc1O [PD5]
Stability in cell homogenate ([1]; astrocytes homogenate): stable | Stability in cell homogenate ([2]; microglia homogenate): stable | Brain Protein Binding fu (%) [3]: 7.0% | Effect on cell viability [12]: slightly increased the cell proliferation

CC(C(=O)Oc1cccc(C[C@H](N)C(=O)O)c1)c1cccc(C(=O)c2ccccc2)c1 (some centres unmarked) [PD3]
Inhibition of prodrug uptake by LAT1/Lat1-inhibitor (Lat1 [11]; 1 µM prodrug): 47.41–58.32% | half-life at 400 µM [1, 14]: 4.71 ± 0.263 h | half-life at 400 µM ([2]; immortalized BV2 microglia homogenate, immortalized microglia homogenate, 400 µM, read-out: Half-life of bioconversion): 3.35 ± 0.224 h | Uptake of prodrug relative to ketoprofen (mouse primary astrocytes): 10–80 times | Uptake of prodrug relative to parent drug 2 [4]: 1–7 times | Half-life in brain S9 subcellular fraction ([5]; approximate): ~1 h | t½ in mouse brain S9 subcellular fraction ([5]; conversion to ketoprofen): 0.866 ± 0.0387 h
